Measured values: US7592308B2, “F3W variants of the lantibiotic mersacidin and its use” (priority 2004, dated 2009)
Values after ≈ are worked out from the molar mass of the structure shown. Like-named read-outs stand apart in the source and are kept apart here. Square brackets hold non-standard residues; d marks the D form. Ends that are not written are not given here. Dha = C=C(N)C(=O)O

Assays:
S. aureus SH1000 = type: cell-based, Staphylococcus aureus; details: Table 8A; MHB + 50 μg/ml calcium; duplicate
Experimental: (§1) A selection of the variants produced in Example 1 above were tested further for activity against a range of bacteria. Minimum inhibitory concentrations (MICs) for all organisms with the exception of Streptococcus pneumoniae were determined by two-fold serial antibiotic dilutions in Mueller-Hinton broth (MHB) supplemented with 50 μg/ml calcium as calcium chloride dihydrate. Minimum inhibitory concentrations (MICs) for S. pneumoniae were determined by two-fold serial antibiotic dilutions in Brain Heart Infusion (BHI) broth supplemented with 50 μg/ml calcium as calcium chloride dihydrate. Antimicrobial agent stock solutions were prepared and stored according to NCCLS standard M7-A6.
(§2) Actively growing broth cultures were diluted to contain […] by adjusting to an absorbance of 0.2-0.3 at 600 nm, equivalent to the McFarland 0.5 standard. They were then diluted a further 1:100 in broth. The assays were performed in duplicate in sterile 96-well microtitre plates in a total volume of 200 μl (160 μl broth, 20 μl antibiotic, 20 μl inoculum) in a concentration range from 64 μg/ml to 0.06 μg/ml. The 12th well of the microtitre plate contained no antimicrobial agent. Vancomycin was used as a reference antibiotic for quality control. Plates were incubated aerobically, shaking, for 18-20 hours at 37° C. with the MIC defined as the lowest concentration of drug that produced no visible growth.

E. faecium BM4147 = test: MIC test, further organisms; type: cell-based, Enterococcus faecium; details: Table 10; duplicate
Experimental: (§3) MIC tests were performed with some of the variants of Example 2 on a range of other organisms. The results are shown in Tables 9 and 10 (figures in μg/ml): […]

S. aureus COL = type: cell-based, Staphylococcus aureus
Experimental: as §3

E. faecalis 29212 = test: MIC, two-fold serial dilution in broth; type: cell-based, Enterococcus faecalis; details: Table 8A; MHB + 50 μg/ml calcium; duplicate
Experimental: as §1, §2

S. aureus Mu50 = test: MIC test, further organisms; type: cell-based, Staphylococcus aureus; details: Table 10; duplicate
Experimental: as §3

S. aureus LT 1012-13 = test: MIC test, further organisms; type: cell-based, Staphylococcus aureus; details: Table 10; duplicate
Experimental: as §3

S. pneumoniae R6 = type: cell-based, Streptococcus pneumoniae; details: Table 8B; BHI broth + 50 μg/ml calcium; duplicate
Experimental: as §1, §2

E. faecium 19579 = test: MIC, two-fold serial dilution in broth; type: cell-based, Enterococcus faecium; details: Table 8A; MHB + 50 μg/ml calcium; duplicate
Experimental: as §1, §2

[1] = tested on: Micrococcus luteus ATCC4698; test: Bioassay of culture supernatant against M. luteus; type: cell-based; details: aqueous phase of chloroform-extracted culture supernatant
Experimental: The cultures were assayed for production of mersacidin by HPLC and bioassay against Micrococcus luteus ATCC4698. Samples of production cultures (1 ml) were centrifuged at 14000 rpm for 10 minutes. Supernatants were decanted and used undiluted for HPLC and bioassay.
For bioassays, M.luteus was inoculated from frozen stock into 10 ml half-strength Muller-Hinton broth in a 50 ml conical flask, and incubated at 30C with shaking at 250 rpm for approximately 7 hours, 0.3 ml of this culture was used to inoculate 300 ml of Muller-Hinton agar which was poured into a bioassay plate. Wells (6 mm diameter) were made with a cork-borer. Samples of 50 μl of supernatants were added to these wells. The concentration of mersacidin in the samples was calculated by comparing the diameter of inhibition zones of samples against a range of concentrations of a pure mersacidin standard.
Chloramphenicol resistant colonies were selected and grown in 3 ml Tryptic Soy Broth at 30C for 24 hours, 250 rpm and 0.3 ml of these cultures were used to inoculate 7 ml of 2×BPM+300 mM glucose+chloramphenicol (20 mg/l). After five days of incubation at 30C and 250 rpm, a 1 ml sample was collected and centrifuged at 13000 rpm for 10 min, the supernatant was removed, extracted with 1 volume of chloroform and the aqueous phase used for bioassay and HPLC-MS analysis (see accompanying disclosure for method). […] These masses are consistent with production of the expected mature lantibiotic products.
The ligation mixture was used to transform E. coli DH10B (Invitrogen). Ampicillin resistant colonies were selected, grown in LB+ampicillin (100 mg/l) and plasmids were isolated and characterised by sequence analysis. Plasmid encoding the expected mutant (pNB2024) was used to transform E. coli ET12567 and the plasmid obtained from this strains was used to transform Bacillus sp. HIL Y-85,54728 E17A. Chloramphenicol resistant colonies were selected and grown in 3 ml Tryptic Soy Broth at 30C for 24 hours, 250 rpm and 0.3 ml of these cultures were used to inoculate 7 ml of 2×BPM+300 mM glucose+chloramphenicol (20 mg/l). […]

M. luteus 4698 = type: cell-based, Micrococcus luteus
Experimental: as §1, §2

E. faecium 7131121 = test: MIC, two-fold serial dilution in broth; type: cell-based, Enterococcus faecium; details: Table 8A; MHB + 50 μg/ml calcium; duplicate
Experimental: as §1, §2

S. aureus R33 = type: cell-based, Staphylococcus aureus; details: Table 8A; MHB + 50 μg/ml calcium; duplicate
Experimental: as §1, §2

S. epidermidis 11047 = type: cell-based, Staphylococcus epidermidis; details: Table 8B; MHB + 50 μg/ml calcium; duplicate
Experimental: as §1, §2

S. aureus SG511 = type: cell-based, Staphylococcus aureus
Experimental: as §3

S. aureus COL MRSA = type: cell-based, Staphylococcus aureus
Experimental: as §3

S. aureus 1012-13 MRSA = type: cell-based, Staphylococcus aureus
Experimental: as §3

S. aureus CS = type: cell-based, Staphylococcus aureus
Experimental: as §3

S. pyogenes 16205 = type: cell-based, Streptococcus pyogenes
Experimental: as §3

S. pyogenes 13608 = type: cell-based, Streptococcus pyogenes
Experimental: as §3

E. faecium 4147-1 = type: cell-based, Enterococcus faecium
Experimental: as §3

E. faecium 4147 VRE = type: cell-based, Enterococcus faecium
Experimental: as §3

[2] = Table 8B, MHB + 50 μg/ml calcium, duplicate

| Molecule | MIC S. aureus SH1000 (S. aureus SH1000) | MIC E. faecium BM4147 (E. faecium BM4147) | MIC S. aureus COL (S. aureus COL; Table 10, duplicate) | MIC E. faecalis 29212 (E. faecalis 29212) | MIC S. aureus Mu50 (S. aureus Mu50) | MIC S. aureus LT 1012-13 (S. aureus LT 1012-13) | MIC S. pneumoniae R6 (S. pneumoniae R6) | MIC E. faecium 19579 (E. faecium 19579) | antibiotic activity in bioassay against M. luteus [1] | MIC E. faecium 7131121 (E. faecium 7131121) | further results |
| --- | --- | --- | --- | --- | --- | --- | --- | --- | --- | --- | --- |
| G8N: mersacidin variant (CTFTLPGNGGVCTLT[Dha]ECIC; thioether (positions not given here); not fully specified; UniProt P43683 49-68, looked up, variant G8N) | >64, >64 μg/ml | >64, >64 μg/ml | >64, >64 μg/ml | >64, >64 μg/ml | >64, >64 μg/ml | >64, >64 μg/ml | >64, >64 μg/ml | >64, >64 μg/ml |  |  |  |
| G8V: mersacidin variant, inactive in bioassay (CTFTLPGVGGVCTLT[Dha]ECIC; thioether (positions not given here); not fully specified; UniProt P43683 49-68, looked up, variant G8V) |  |  |  |  |  |  |  |  | inactive |  |  |
| C=C1NC(=O)C2NC(=O)[C@H](CC(C)C)NC(=O)C(NC(=O)[C@@H]3CSC(C)C(NC(=O)[C@H](Cc4ccccc4)NC(=O)C4NC(=O)[C@@H](N)CSC4C)C(=O)N[C@@H](CC(C)C)C(=O)N4CCC[C@H]4C(=O)NCC(=O)NCC(=O)N[C@@H](C)C(=O)NCC(=O)N[C@@H](C(C)C)C(=O)N3)C(C)SC[C@H](NC(=O)[C@H](CCC(=O)O)NC1=O)C(=O)N[C@@H]([C@@H](C)CC)C(=O)NC=CSC2C (some centres unmarked) [G9A] |  | >64, >64 μg/ml |  | >64, >64 μg/ml | >64, >64 μg/ml | >64, >64 μg/ml |  |  |  |  | MIC S. aureus COL (S. aureus COL; COL): 64, >64 μg/ml; MIC M. luteus 4698 (M. luteus 4698; [2]): <4, <4 μg/ml |
| C=C1NC(=O)C2NC(=O)[C@H](CC(C)C)NC(=O)C(NC(=O)[C@@H]3CSC(C)C(NC(=O)[C@H](Cc4ccccc4)NC(=O)C4NC(=O)[C@@H](N)CSC4C)C(=O)N[C@@H](CC(C)C)C(=O)N[C@@H](Cc4c[nH]cn4)C(=O)NCC(=O)NCC(=O)NCC(=O)NCC(=O)N[C@@H](C(C)C)C(=O)N3)C(C)SC[C@H](NC(=O)[C@H](CCC(=O)O)NC1=O)C(=O)N[C@@H]([C@@H](C)CC)C(=O)NC=CSC2C (some centres unmarked) [P6H] |  | >64, >64 μg/ml | >64, >64 μg/ml | >64, >64 μg/ml | >64, >64 μg/ml | >64, >64 μg/ml | >64, 64 μg/ml | >64, >64 μg/ml |  | >64, >64 μg/ml |  |
| G10N: mersacidin variant (CTFTLPGGGNVCTLT[Dha]ECIC; thioether (positions not given here); not fully specified; UniProt P43683 49-68, looked up, variant G10N) | >64, >64 μg/ml |  |  | >64, >64 μg/ml |  |  | >64, >64 μg/ml | >64, >64 μg/ml |  | >64, >64 μg/ml | MIC S. aureus R33 (S. aureus R33): >64, >64 μg/ml; MIC S. epidermidis 11047 (S. epidermidis 11047): >64, >64 μg/ml |
| G9H: mersacidin variant (CTFTLPGGHGVCTLT[Dha]ECIC; thioether (positions not given here); not fully specified; UniProt P43683 49-68, looked up, variant G9H) |  | >64, >64 μg/ml | >64, >64 μg/ml | >64, >64 μg/ml | >64, >64 μg/ml | >64, >64 μg/ml |  |  |  |  | MIC M. luteus 4698 (M. luteus 4698; [2]): <4, <4 μg/ml |
| G9R: mersacidin variant (CTFTLPGGRGVCTLT[Dha]ECIC; thioether (positions not given here); not fully specified; UniProt P43683 49-68, looked up, variant G9R) | >64, >64 μg/ml |  |  | >64, >64 μg/ml |  |  | >64, >64 μg/ml | >64, >64 μg/ml |  | >64, >64 μg/ml | MIC S. aureus R33 (S. aureus R33): >64, >64 μg/ml; MIC S. epidermidis 11047 (S. epidermidis 11047): >64, >64 μg/ml |
| C=C1NC(=O)C2NC(=O)[C@H](CC(C)C)NC(=O)C(NC(=O)[C@@H]3CSC(C)C(NC(=O)[C@H](Cc4c[nH]c5ccccc45)NC(=O)C4NC(=O)[C@@H](N)CSC4C)C(=O)N[C@@H](CC(C)C)C(=O)N4CCC[C@H]4C(=O)NCC(=O)NCC(=O)NCC(=O)NCC(=O)N[C@@H](C(C)C)C(=O)N3)C(C)SC[C@H](NC(=O)[C@H](CCC(=O)O)NC1=O)C(=O)N[C@@H]([C@@H](C)CC)C(=O)NC=CSC2C (some centres unmarked) [F3W, mersacidin F3W] |  |  |  |  |  |  |  |  | antibiotic activity comparable to mersacidin |  | MIC S. aureus SG511 (S. aureus SG511): 2 µg/mL (≈ 1.07 µM); MIC S. aureus COL MRSA (S. aureus COL MRSA): 16 µg/mL (≈ 8.58 µM); MIC S. aureus 1012-13 MRSA (S. aureus 1012-13 MRSA): 4 µg/mL (≈ 2.14 µM); MIC S. aureus CS (S. aureus CS): 4 µg/mL (≈ 2.14 µM); MIC M. luteus 4698 (M. luteus 4698; 4698): 0.5 µg/mL (≈ 0.268 µM); MIC S. pyogenes 16205 (S. pyogenes 16205): 0.125 µg/mL (≈ 0.067 µM); MIC S. pyogenes 13608 (S. pyogenes 13608): 0.125 µg/mL (≈ 0.067 µM); MIC E. faecium 4147-1 (E. faecium 4147-1; Table 9, 16 h): 32-16 h, μg/ml; MIC E. faecium 4147-1 (E. faecium 4147-1; Table 9, 23 h): 64-23 h μg/ml; MIC E. faecium 4147 VRE (E. faecium 4147 VRE; 4147 VRE): 32 µg/mL (≈ 17.2 µM) |
| C=C1NC(=O)C2NC(=O)[C@H](CC(C)C)NC(=O)C(NC(=O)[C@@H]3CSC(C)C(NC(=O)[C@H](Cc4ccccc4)NC(=O)C4NC(=O)[C@@H](N)CSC4C)C(=O)N[C@@H](CC(C)C)C(=O)N4CCC[C@H]4C(=O)NCC(=O)N[C@@H](C)C(=O)NCC(=O)NCC(=O)N[C@@H](C(C)C)C(=O)N3)C(C)SC[C@H](NC(=O)[C@H](CCC(=O)O)NC1=O)C(=O)N[C@@H]([C@@H](C)CC)C(=O)NC=CSC2C (some centres unmarked) [G8A, mersacidin G8A] |  |  |  |  |  |  |  |  | has antibiotic activity |  | MIC S. aureus SG511 (S. aureus SG511): 8 µg/mL (≈ 4.35 µM); MIC S. aureus COL MRSA (S. aureus COL MRSA): 32 µg/mL (≈ 17.4 µM); MIC S. aureus 1012-13 MRSA (S. aureus 1012-13 MRSA): 16 µg/mL (≈ 8.69 µM); MIC S. aureus CS (S. aureus CS): 8 µg/mL (≈ 4.35 µM); MIC M. luteus 4698 (M. luteus 4698; 4698): 4 µg/mL (≈ 2.17 µM); MIC S. pyogenes 16205 (S. pyogenes 16205): 1 µg/mL (≈ 0.543 µM); MIC S. pyogenes 13608 (S. pyogenes 13608): 1 µg/mL (≈ 0.543 µM); MIC E. faecium 4147-1 (E. faecium 4147-1; 4147-1): 128 µg/mL (≈ 69.6 µM); MIC E. faecium 4147 VRE (E. faecium 4147 VRE; Table 9, 16 h): 64-16 h, μg/ml; MIC E. faecium 4147 VRE (E. faecium 4147 VRE; Table 9, 24 h): 128-24 h μg/ml |
